≈ marks a conversion by molar mass, not a printed value.

A short description of data set [1]: Cytotoxicity assay in MT-4 cells. The note with it: human, uninfected MT-4 cells, average of at least two independent experiments, read-out: MT4 CC50. In kind it is cell-based. An outline of the steps:
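Uninfected MT-4 cells were incubated 5 days at 37 °C with 1:3 serially diluted compound in RPMI (10% FBS), with 10 μM puromycin as baseline cytotoxicity. Viability was read by CellTiter-Glo luminescence. Values are concentrations giving 50% luminescence decrease, from sigmoidal dose-response fits.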

In the next data set the test system is HBV. As to the kind of experiment: Antiviral (HBV) assay in primary human hepatocytes (PHHs). It is filed as cell-based. The note with it: Hepatitis B virus, Hepatocyte, 120 h; HBV (GTD) infected PHH, 5 days, HBV DNA in supernatant; average of at least two independent experiments. As for the experimental part:
Example 106: Antiviral (HBV) Assay in Primary Human Hepatocytes (PHHs)
Cryopreserved PHH were thawed, recovered by centrifugation at 100 g in cryopreserved hepatocyte recovery medium (Thermo Fisher Scientific; CM7500), and plated on collagen matrix (Life Technologies; Catalog Number: R-011-K) coated T225 flasks (Corning CellBIND, Catalog Number: 3293) at a density of 25E6 live cells in 60 mls media. Cells were plated in William's E medium (Thermo Fisher Scientific; A1217601) supplemented with 3.6% hepatocyte thawing and plating supplement (Thermo Fisher Scientific, A15563), 5% fetal bovine serum (Thermo Fisher Scientific; 16000-036), 1 μM dexamethasone (Thermo Fisher Scientific, A15563), and 0.2% Torpedo antibiotic mix (Bioreclamation; Z990008). The plating medium was removed after 14 hours and the cells were subsequently cultured in maintenance medium: William's E medium supplemented with 4% hepatocyte maintenance supplement (Thermo Fisher Scientific; AI15564), 2% fetal bovine serum, 0.1μ M dexamethasone, 1.5% DMSO (Sigma-Aldrich, St. Louis, MO; D8418), and 0.2% Torpedo antibiotic mix. Approximately 24 hours after plating, PHH were infected with HepAD38-derived GTD virus at 500 viral genome equivalents per cell in PHH maintenance medium supplemented with 4% PEG 8000 (Promega, Madison, WI; V3011). Infections were allowed to proceed for 24 hours before removing the remaining extracellular virions by washing with maintenance medium three times. After allowing viral infection to take place for 3 days, the infected cells were harvested from the flasks by trypsinization (0.25X in PBS without Ca/Mg, 25 minutes) following a 4 minute 0.5X Versene (Life Technologies Catalog Number: 15040-066) treatment and two PBS washes. Trypsinized cells were inactivated in 10% FBS containing maintenance medium, centrifuged 6 minutes at 50 g, resuspended in hepatocyte maintenance medium, filtered through a 40 uM cell strainer, and adjusted to a density of 0.25E6 cells/ml. Infected cells were seeded on 384 well collagen coated plates (Greiner, Austria) at a density of 20,000 cells/well containing serially diluted compounds of the present disclosure or DMSO (0.5%) in a final volume of 80 μl. The assay plates were incubated for a period of 5 days and the antiviral activity of the test compounds were assayed by detecting the presence of HBV DNA in the culture supernatant using the QuantiGene™ 2.0 nucleic acid quantification kit (Affymetrix, Santa Clara, CA).

A short description of data set [2]: Cytotoxicity assay in primary human hepatocytes (PHHs). The following applies: HBV-infected primary human hepatocytes, HBV-infected PHH, Cell Titer Glo, average of at least two independent experiments. In kind it is cell-based. As for the experimental part:
Example 107: Cytotoxicity Assay in Primary Human Hepatocytes (PHHs)
The HBV-infected primary human hepatocytes are seeded (20K cells/well in 80 uL of Media) in 384well collagen coated plates pre-spotted with compounds. After 5 days, 40 ul of cell supernatant is removed to quantify HBV DNA levels as described in Example 106. Then, 40 ul Cell Titer Glo Reagent (Promega Catalog Number: G7572) is added to the remaining cells and luminescence is measured on the EnVision microplate reader.
In general terms: In ATP-based viability assays light output follows the ATP content of the culture.

The nature of data set [3]: Kinetic solubility analysis. It is filed as physicochemical. The note with it: 1× PBS, 24.2 °C, aqueous buffer, kinetic from dmso stock; pH 7.4 PBS, 1% DMSO, 24-hour incubation at ambient temperature. A digest of the protocol:
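Compounds from 10 mM DMSO stocks were incubated in 0.1 N HCl or 1× PBS pH 7.4 (1.0% DMSO, 100 μM maximum theoretical) for 24 h at 24.2-27.5 °C, then vacuum filtered. Filtrates were quantified in μM by chemiluminescent nitrogen detection against a calibration curve, corrected for background nitrogen; values for adjacent ring-nitrogen compounds were raised ~25%.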

Take `C[C@H](Cn1cnc2c(N)ncnc21)OCP(=O)(NC(C)(C)C(=O)O[C@H]1C[C@@H](C(C)(C)C)C1)NC(C)(C)C(=O)O[C@H]1C[C@@H](C(C)(C)C)C1` [Example 51, Bis((1S,3S)-3-(tert-butyl)cyclobutyl) 2,2′-((((((R)-1-(6-amino-9H-purin-9-yl)propan-2-yl)oxy)methyl)phosphoryl)bis(azanediyl))bis(2-methylpropanoate)]: the results for the CC50 at 5 days in data set [1] and in data set [2] were 7250 nM and > 100 nM, respectively. This compound showed a concentration giving a half-maximal response (EC50) in the data set with HBV of 6 nM. Besides, the solubility (kinetic) at 24 h in data set [3] stood at 6 µg/mL (≈ 8.85 µM).

On to `C[C@H](Cn1cnc2c(N)ncnc21)OCP(=O)(NC(C)(C)C(=O)O[C@H]1C[C@H](C(C)(C)C)C1)NC(C)(C)C(=O)O[C@H]1C[C@H](C(C)(C)C)C1` [Example 52, Bis((1R,3R)-3-(tert-butyl)cyclobutyl) 2,2′-((((((R)-1-(6-amino-9H-purin-9-yl)propan-2-yl)oxy)methyl)phosphoryl)bis(azanediyl))bis(2-methylpropanoate)], for which the cytotoxic concentration (CC50) at 5 days in data set [1] was 7190 nM; in data set [2], > 100 nM. The response in the data set with HBV was half-maximal at 14.4 nM (EC50). For the same compound, in data set [3], the solubility (kinetic) at 24 h was < 1 µg/mL.

For `C[C@H](Cn1cnc2c(N)ncnc21)OCP(=O)(NC(C)(C)C(=O)OCC1CCC2(CCC2)CC1)NC(C)(C)C(=O)OCC1CCC2(CCC2)CC1` (stereo partly drawn) [Example 53, Bis(spiro[3.5]nonan-7-ylmethyl) 2,2′-(((((1-(6-amino-9H-purin-9-yl)propan-2-yl)oxy)methyl)phosphoryl)bis(azanediyl))(R)-bis(2-methylpropanoate)], the CC50 at 5 days was 7550 nM in data set [1] and > 100 nM in data set [2]. Also, the half-maximal effective concentration (EC50) in the data set on HBV came out at 8.38 nM. In data set [3], the solubility (kinetic) at 24 h was < 1 µg/mL.

With `CCC(C)(C)CCOC(=O)C(C)(C)NP(=O)(CO[C@H](C)Cn1cnc2c(N)ncnc21)NC(C)(C)C(=O)OCCC(C)(C)CC` [Example 54, Bis(3,3-dimethylpentyl) 2,2′-(((((1-(6-amino-9H-purin-9-yl)propan-2-yl)oxy)methyl)phosphoryl)bis(azanediyl))(R)-bis(2-methylpropanoate)], the CC50 at 5 days in data set [1] was 6720 nM; in data set [2] it was > 100 nM. Also, the 50% effective concentration (EC50) in the data set with HBV worked out at 4.45 nM. This compound also displayed a kinetic solubility at 24 h in data set [3] of 12 µg/mL (≈ 18.4 µM).

Take `C[C@H](Cn1cnc2c(N)ncnc21)OCP(=O)(NC(C)(C)C(=O)O[C@H](C)C1CCCCC1)NC(C)(C)C(=O)O[C@H](C)C1CCCCC1` [Example 55, Bis((R)-1-cyclohexylethyl) 2,2′-((((((R)-1-(6-amino-9H-purin-9-yl)propan-2-yl)oxy)methyl)phosphoryl)bis(azanediyl))bis(2-methylpropanoate)]: the CC50 at 5 days was 9420 nM in data set [1] and > 100 nM in data set [2]. For the same compound, a half-maximal response in the data set on HBV (EC50) required 6.26 nM. In addition, the kinetic solubility at 24 h in data set [3] is < 1 µg/mL.

For the compound `C[C@H](Cn1cnc2c(N)ncnc21)OCP(=O)(NC(C)(C)C(=O)O[C@@H](C)C1CCCCC1)NC(C)(C)C(=O)O[C@@H](C)C1CCCCC1` [Example 56, Bis((S)-1-cyclohexylethyl) 2,2′-((((((R)-1-(6-amino-9H-purin-9-yl)propan-2-yl)oxy)methyl)phosphoryl)bis(azanediyl))bis(2-methylpropanoate)], the 50% cytotoxic concentration (CC50) at 5 days is 9650 nM in data set [1] and > 100 nM in data set [2]. This compound returned a half-maximal effective concentration (EC50) with HBV of 3.99 nM. The kinetic solubility at 24 h in data set [3] turned out to be 5 µg/mL (≈ 7.38 µM).

In the case of `C[C@H](Cn1cnc2c(N)ncnc21)OCP(=O)(NC(C)(C)C(=O)OCC1CC2(C1)CC1(CCC1)C2)NC(C)(C)C(=O)OCC1CC2(C1)CC1(CCC1)C2` [Example 57, Bis(dispiro[3.1.3^6.1^4]decan-2-ylmethyl) 2,2′-(((((1-(6-amino-9H-purin-9-yl)propan-2-yl)oxy)methyl)phosphoryl)bis(azanediyl))(R)-bis(2-methylpropanoate)], the values for the half-maximal cytotoxic concentration (CC50) at 5 days in data set [1] and in data set [2] were 6620 nM and > 100 nM, respectively. In addition, the concentration for a half-maximal effect (EC50) in the data set on HBV was 4.71 nM. Further, the solubility (kinetic) at 24 h in data set [3] is < 1 µg/mL.

As for `C[C@H](Cn1cnc2c(N)ncnc21)OCP(=O)(NC(C)(C)C(=O)OCC1CC2(C1)CC(F)(F)C2)NC(C)(C)C(=O)OCC1CC2(C1)CC(F)(F)C2` [Example 58, Bis((6,6-difluorospiro[3.3]heptan-2-yl)methyl) 2,2′-(((((1-(6-amino-9H-purin-9-yl)propan-2-yl)oxy)methyl)phosphoryl)bis(azanediyl))(R)-bis(2-methylpropanoate)], the CC50 at 5 days in data set [1] is 3680 nM; in data set [2], > 100 nM. Besides, a half-maximal effect in the data set with HBV (EC50) was put at 1.26 nM. The solubility (kinetic) at 24 h in data set [3] turned out to be 51 µg/mL (≈ 68.4 µM).

Turning to `C[C@H](Cn1cnc2c(N)ncnc21)OCP(=O)(NC(C)(C)C(=O)OCC12CC3CC(CC(C3)C1)C2)NC(C)(C)C(=O)OCC12CC3CC(CC(C3)C1)C2` [Example 59, Bis(((1S,3S)-adamantan-1-yl)methyl) 2,2′-((((((R)-1-(6-amino-9H-purin-9-yl)propan-2-yl)oxy)methyl)phosphoryl)bis(azanediyl))bis(2-methylpropanoate)], the CC50 at 5 days in data set [1] is 6960 nM; in data set [2], > 100 nM. The compound also yielded a concentration giving a half-maximal response (EC50) in the data set on HBV of 6.53 nM. Also, in data set [3], the kinetic solubility at 24 h is < 1 µg/mL.

As for `C[C@H](Cn1cnc2c(N)ncnc21)OCP(=O)(NC(C)(C)C(=O)O[C@@H]1C[C@@H]2C[C@@H]2C1)NC(C)(C)C(=O)O[C@@H]1C[C@@H]2C[C@@H]2C1` [Example 60, Di((1R,3R,5S)-bicyclo[3.1.0]hexan-3-yl) 2,2′-((((((R)-1-(6-amino-9H-purin-9-yl)propan-2-yl)oxy)methyl)phosphoryl)bis(azanediyl))bis(2-methylpropanoate)], the CC50 at 5 days is 3310 nM in data set [1] and > 100 nM in data set [2]. Also, the EC50 in the data set with HBV worked out at 1.44 nM. In addition, in data set [3], the solubility (kinetic) at 24 h turned out to be 76 µg/mL (≈ 123 µM).

In the case of `CCCCCCOC(=O)C(C)(C)NP(=O)(CO[C@H](C)Cn1cnc2c(=N)n(Cc3oc(=O)oc3C)cnc21)NC(C)(C)C(=O)OCCCCCC` [Example 83, Dihexyl 2,2′-(((((1-(6-imino-1-((5-methyl-2-oxo-1,3-dioxol-4-yl)methyl)-1,6-dihydro-9H-purin-9-yl)propan-2-yl)oxy)methyl)phosphoryl)bis(azanediyl))(R)-bis(2-methylpropanoate)], the CC50 at 5 days was 6600 nM in data set [1] and > 100 nM in data set [2]. Moreover, the 50% effective concentration (EC50) in the data set on HBV stood at 2.14 nM. The compound further had a kinetic solubility at 24 h in data set [3] of 33 µg/mL (≈ 44.7 µM).

Regarding `CCCCCCOC(=O)C(C)(C)NP(=O)(CO[C@H](C)Cn1cnc2/c(=N\Cc3oc(=O)oc3C)n(Cc3oc(=O)oc3C)cnc21)NC(C)(C)C(=O)OCCCCCC` [Example 84, Dihexyl 2,2′-(((((1-(1-((5-methyl-2-oxo-1,3-dioxol-4-yl)methyl)-6-(((5-methyl-2-oxo-1,3-dioxol-4-yl)methyl)imino)-1,6-dihydro-9H-purin-9-yl)propan-2-yl)oxy)methyl)phosphoryl)bis(azanediyl))(R,E)-bis(2-methylpropanoate)], the figures for the half-maximal cytotoxic concentration (CC50) at 5 days in data set [1] and in data set [2] were 10600 nM and > 100 nM, respectively. In addition, in the data set with HBV, the EC50 was 3.37 nM. The kinetic solubility at 24 h in data set [3] came to 8 µg/mL (≈ 9.41 µM).

As a reminder, the CC50 is the concentration at which the toxic effect on the cells reaches its halfway point. One may read the EC50 as the concentration needed to bring the measured effect to its halfway point. High values mean a less potent agent, low ones a more potent agent. What is called solubility (kinetic) is solubility judged after dilution from a stock solution rather than from solid.

Values taken from US20230303599A1, “PRODRUGS OF PHOSPHONAMIDE NUCLEOTIDE ANALOGUES AND THEIR PHARMACEUTICAL USE” (priority 2020, published 2023).
